Key:
FIG-ROS/BaF3 cell = molecular target: T1, FIG-ROS/BaF3 cell (Homo sapiens, UniProt P08922); assay: Proliferation inhibitory activity test against FIG-ROS/BaF3 cell; assay type: cell-based; conditions: 3 days incubation, cell counting kit; read-out: Proliferation inhibitory activity against FIG-ROS/BaF3 cell (IC50)
T1 construct: fused on or other part: Q9HD26 (Golgi-associated PDZ and coiled-coil motif-containing protein)
Experimental: A BaF3 cell which had been transformed by introducing the FIG-ROS fusion gene (derived from U118MG human glioma cell) (FIG-ROS/BaF3 Cell) was prepared on a culture medium, seeded on a 96-well plate in the number of 1×10^3/100 μL per well, and then allowed to stand in a CO2 incubator (at 37° C. and 5% CO2). As the culture medium, 10% FBS (fetal bovine serum)-incorporated RPMI-1640 was used.
2. Proliferation Inhibitory Activity Test:
A test substance was dissolved in dimethyl sulfoxide (DMSO) to 10 mM and further diluted with DMSO to 100-fold to prepare a 100 μM solution. This was diluted with a 1% DMSO-incorporated medium to concentrations of 10-fold of the concentration to be measured (10,000, 1,000, 100, 10, and 1 nM). Each of the medicine solutions was added at 11 μL per well and mixed. To a control having no medicine added thereto, a 1% DMSO-incorporated medium was added, and incubated in a CO2 incubator (at 37° C. and 5% CO2) for 3 days. After completion of the incubation, the number of live cells was counted using a cell counting kit. First of all, each cell counting kit solution was added at 5 μL per well and mixed, and incubated in a CO2 incubator (at 37° C. and 5% CO2) for 4 hours. An absorbance at 450 nm was measured with a microplate reader (Model 3550, manufactured by BIO-RAD, Benchmark, manufactured by BIO-RAD, or iMARK, manufactured by BIO-RAD) with a reference wavelength of 650 nm.
3. Analysis of Measurement Results:
A non-linear regression analysis was performed for the measured absorbance with an SAS system (SAS Institute Inc.), and a concentration of each of the test substances of inhibiting the cell proliferation at 50% (IC50) was calculated. The proliferation inhibitory activity (IC50, nM) of each of the test substances against the FIG-ROS/BaF3 cell is shown in Table 9.

ROS tyrosine kinase = molecular target: T2, ROS tyrosine kinase (Homo sapiens, UniProt P08922); assay: ROS tyrosine kinase inhibitory activity test (ELISA); assay type: biochemical, humans; conditions: 25 μM ATP substrate solution, 30° C., one hour
T2 construct: purchased Carna Biosciences, Inc
T2 sequence (P08922 28-2347): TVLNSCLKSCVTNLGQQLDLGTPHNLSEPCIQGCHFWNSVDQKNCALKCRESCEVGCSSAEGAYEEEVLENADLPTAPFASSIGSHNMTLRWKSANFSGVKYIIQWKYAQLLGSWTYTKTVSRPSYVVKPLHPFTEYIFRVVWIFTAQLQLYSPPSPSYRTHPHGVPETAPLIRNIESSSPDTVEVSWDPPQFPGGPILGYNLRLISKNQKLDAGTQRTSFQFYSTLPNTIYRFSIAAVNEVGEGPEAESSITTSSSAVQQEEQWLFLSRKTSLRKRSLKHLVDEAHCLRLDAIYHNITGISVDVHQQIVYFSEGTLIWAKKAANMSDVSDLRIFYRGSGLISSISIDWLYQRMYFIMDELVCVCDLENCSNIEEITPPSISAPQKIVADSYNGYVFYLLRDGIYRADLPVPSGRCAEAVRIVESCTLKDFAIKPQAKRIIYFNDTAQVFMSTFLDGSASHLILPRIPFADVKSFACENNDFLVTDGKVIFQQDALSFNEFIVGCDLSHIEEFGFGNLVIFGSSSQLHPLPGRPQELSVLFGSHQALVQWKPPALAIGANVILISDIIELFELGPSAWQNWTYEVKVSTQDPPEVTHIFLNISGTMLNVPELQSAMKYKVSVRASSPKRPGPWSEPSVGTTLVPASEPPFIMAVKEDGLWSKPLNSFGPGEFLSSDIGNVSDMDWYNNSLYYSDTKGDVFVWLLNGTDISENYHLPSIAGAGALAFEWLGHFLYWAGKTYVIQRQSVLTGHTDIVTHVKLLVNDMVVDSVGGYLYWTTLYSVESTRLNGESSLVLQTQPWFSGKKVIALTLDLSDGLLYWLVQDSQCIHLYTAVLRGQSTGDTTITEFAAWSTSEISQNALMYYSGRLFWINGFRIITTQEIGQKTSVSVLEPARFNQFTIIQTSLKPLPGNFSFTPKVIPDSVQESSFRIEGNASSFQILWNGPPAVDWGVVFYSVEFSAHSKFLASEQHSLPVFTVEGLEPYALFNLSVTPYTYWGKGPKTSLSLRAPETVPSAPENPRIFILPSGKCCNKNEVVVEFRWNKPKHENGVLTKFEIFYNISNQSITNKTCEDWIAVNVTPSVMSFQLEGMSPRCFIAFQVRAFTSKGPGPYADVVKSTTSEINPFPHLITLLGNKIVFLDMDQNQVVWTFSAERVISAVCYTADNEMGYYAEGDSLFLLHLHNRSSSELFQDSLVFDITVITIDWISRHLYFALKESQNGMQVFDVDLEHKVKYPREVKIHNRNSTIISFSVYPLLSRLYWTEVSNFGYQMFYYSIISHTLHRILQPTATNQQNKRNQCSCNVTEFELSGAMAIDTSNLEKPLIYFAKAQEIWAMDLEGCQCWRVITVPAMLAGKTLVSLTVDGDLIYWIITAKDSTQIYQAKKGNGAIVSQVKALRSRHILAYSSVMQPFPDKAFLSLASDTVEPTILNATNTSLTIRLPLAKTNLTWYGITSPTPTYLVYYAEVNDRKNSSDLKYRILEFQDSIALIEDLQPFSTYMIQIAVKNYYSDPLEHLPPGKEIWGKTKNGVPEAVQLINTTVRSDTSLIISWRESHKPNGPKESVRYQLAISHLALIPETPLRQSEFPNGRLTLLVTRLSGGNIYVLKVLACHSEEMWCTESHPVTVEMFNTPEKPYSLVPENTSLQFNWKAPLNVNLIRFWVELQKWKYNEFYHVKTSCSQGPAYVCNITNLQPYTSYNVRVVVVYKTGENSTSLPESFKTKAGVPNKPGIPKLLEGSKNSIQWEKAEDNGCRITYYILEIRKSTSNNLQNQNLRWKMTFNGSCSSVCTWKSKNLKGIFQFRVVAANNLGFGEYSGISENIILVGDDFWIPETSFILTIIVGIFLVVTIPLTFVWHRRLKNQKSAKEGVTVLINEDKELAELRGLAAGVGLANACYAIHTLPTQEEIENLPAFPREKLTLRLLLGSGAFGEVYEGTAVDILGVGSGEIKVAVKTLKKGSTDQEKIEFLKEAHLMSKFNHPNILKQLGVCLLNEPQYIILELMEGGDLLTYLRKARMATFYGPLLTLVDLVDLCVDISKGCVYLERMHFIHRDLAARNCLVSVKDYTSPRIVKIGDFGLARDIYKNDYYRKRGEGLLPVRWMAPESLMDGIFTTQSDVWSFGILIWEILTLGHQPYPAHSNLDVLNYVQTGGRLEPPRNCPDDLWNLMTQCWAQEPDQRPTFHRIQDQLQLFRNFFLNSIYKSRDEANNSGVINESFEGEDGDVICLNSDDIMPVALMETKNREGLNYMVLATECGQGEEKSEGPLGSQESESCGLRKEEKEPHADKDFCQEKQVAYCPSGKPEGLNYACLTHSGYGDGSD
Summary of the method: (§1)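 Human recombinant ROS or JAK2 kinase (added as a 0.25 nM solution) reacted for 1 h at 30 °C in 15 mM Tris-Cl pH 7.5, 0.01% Tween-20, 1 mM DTT with compound from DMSO. Substrate phosphotyrosine was detected by HRP anti-phosphotyrosine antibody and TMB at A450, and IC50 came from non-linear regression.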

JAK2 tyrosine kinase = molecular target: T3, JAK2 tyrosine kinase (Homo sapiens, UniProt O60674); assay: JAK2 tyrosine kinase inhibitory activity test (ELISA); assay type: biochemical, humans; conditions: 25 μM ATP substrate solution, 30° C., one hour
T3 construct: purchased Carna Biosciences, Inc
Summary of the method: as §1

T1 sequence (P08922 whole entry, stated change not applied, the tested form may be a part): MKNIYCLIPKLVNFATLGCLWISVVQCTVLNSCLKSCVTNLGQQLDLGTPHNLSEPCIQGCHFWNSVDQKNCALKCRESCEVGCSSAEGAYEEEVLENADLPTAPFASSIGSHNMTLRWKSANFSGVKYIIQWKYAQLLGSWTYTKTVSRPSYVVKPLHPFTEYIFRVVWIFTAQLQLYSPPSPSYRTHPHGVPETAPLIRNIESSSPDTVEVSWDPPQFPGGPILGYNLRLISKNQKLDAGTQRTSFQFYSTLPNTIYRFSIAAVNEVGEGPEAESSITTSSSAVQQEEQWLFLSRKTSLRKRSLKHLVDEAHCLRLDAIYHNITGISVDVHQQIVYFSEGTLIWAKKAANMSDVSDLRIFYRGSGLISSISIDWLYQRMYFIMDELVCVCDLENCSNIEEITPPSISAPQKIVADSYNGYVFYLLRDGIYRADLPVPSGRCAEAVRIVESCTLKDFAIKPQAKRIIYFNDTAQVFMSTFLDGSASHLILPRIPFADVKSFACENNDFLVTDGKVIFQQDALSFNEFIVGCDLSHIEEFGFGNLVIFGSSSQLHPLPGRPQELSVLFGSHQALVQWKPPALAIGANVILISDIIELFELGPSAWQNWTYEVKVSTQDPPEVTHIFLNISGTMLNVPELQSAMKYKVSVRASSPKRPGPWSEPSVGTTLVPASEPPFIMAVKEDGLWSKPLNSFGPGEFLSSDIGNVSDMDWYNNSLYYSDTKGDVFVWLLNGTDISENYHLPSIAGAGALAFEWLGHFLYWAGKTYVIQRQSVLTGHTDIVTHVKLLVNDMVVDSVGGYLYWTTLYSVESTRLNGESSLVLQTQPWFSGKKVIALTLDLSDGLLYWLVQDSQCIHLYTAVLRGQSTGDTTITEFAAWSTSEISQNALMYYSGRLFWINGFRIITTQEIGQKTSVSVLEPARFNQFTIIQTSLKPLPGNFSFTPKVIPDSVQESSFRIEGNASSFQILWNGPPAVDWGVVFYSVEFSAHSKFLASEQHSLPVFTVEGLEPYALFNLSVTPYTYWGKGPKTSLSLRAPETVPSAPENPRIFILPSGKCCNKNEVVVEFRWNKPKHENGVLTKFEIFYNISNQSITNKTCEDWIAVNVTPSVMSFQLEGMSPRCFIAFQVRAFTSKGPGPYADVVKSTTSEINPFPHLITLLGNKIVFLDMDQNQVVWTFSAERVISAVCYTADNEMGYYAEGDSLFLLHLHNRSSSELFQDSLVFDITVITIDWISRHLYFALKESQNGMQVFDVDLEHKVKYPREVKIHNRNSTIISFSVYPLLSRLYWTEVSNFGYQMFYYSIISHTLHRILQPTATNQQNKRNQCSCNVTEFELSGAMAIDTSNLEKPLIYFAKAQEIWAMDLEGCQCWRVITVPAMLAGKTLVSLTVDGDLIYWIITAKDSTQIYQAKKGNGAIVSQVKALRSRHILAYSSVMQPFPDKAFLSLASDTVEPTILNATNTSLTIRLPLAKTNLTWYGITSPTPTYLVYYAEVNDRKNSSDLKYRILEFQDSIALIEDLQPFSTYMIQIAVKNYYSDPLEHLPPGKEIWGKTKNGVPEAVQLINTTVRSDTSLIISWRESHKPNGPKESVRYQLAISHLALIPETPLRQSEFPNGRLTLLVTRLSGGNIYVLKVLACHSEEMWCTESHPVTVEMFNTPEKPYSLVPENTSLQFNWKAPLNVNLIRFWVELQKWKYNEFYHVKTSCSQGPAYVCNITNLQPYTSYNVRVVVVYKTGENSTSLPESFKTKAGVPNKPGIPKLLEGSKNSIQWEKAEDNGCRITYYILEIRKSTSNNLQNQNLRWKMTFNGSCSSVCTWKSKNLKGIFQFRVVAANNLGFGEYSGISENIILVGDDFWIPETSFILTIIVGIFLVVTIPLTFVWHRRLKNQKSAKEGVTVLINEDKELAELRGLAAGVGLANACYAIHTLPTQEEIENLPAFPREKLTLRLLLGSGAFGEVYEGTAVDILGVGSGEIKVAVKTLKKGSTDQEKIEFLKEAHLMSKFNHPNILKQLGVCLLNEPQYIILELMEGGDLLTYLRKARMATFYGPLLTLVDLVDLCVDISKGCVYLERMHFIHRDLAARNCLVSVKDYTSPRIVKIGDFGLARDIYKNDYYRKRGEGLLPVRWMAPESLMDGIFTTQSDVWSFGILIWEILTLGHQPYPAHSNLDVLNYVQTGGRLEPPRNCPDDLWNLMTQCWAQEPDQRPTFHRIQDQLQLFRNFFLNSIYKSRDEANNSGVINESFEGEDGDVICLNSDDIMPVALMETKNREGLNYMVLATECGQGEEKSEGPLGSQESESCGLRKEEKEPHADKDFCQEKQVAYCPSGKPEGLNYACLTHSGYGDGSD

Structure (SMILES)	GI50 (FIG-ROS/BaF3 cell) [nM]	IC50 (ROS tyrosine kinase) [nM]	IC50 (JAK2 tyrosine kinase) [nM]
Cc1ccc(C2CCCN2c2cc(C(F)(F)F)cc(Nc3ncc(C#N)s3)n2)cc1 (stereo not drawn) [Example 27, 2-({6-[2-(4-Methylphenyl)pyrrolidin-1-yl]-4-(trifluoromethyl)pyridin-2-yl}amino)-1,3-thiazole-5-carbonitrile]	27	65	> 1000
Cc1ccc([C@@H]2CCCN2c2cnc(C)c(Nc3ncc(C)s3)n2)cc1 [Example 29, 3-Methyl-6-[(2S)-2-(4-methylphenyl)pyrrolidin-1-yl]-N-(5-methyl-1,3-thiazol-2-yl)pyrazine-2-amine]	4.3	1.3	140
COc1cc(OC)cc(C2CCCN2c2cncc(Nc3ncc(C#N)s3)n2)c1 (stereo not drawn) [Example 32, 2-({6-[2-(3,5-Dimethoxyphenyl)pyrrolidin-1-yl]pyrazin-2-yl}amino)-1,3-thiazol-5-carbonitrile]	33	4.4	> 1000
Cc1ccc([C@@H]2CCCN2c2cnc(C3CC3)c(Nc3ncc(C)s3)n2)cc1 [Example 34, 3-Cyclopropyl-6-[(2S)-2-(4-methylphenyl)pyrrolidin-1-yl]-N-(5-methyl-1,3-thiazol-2-yl)pyrazine-2-amine]	12	4.1	> 1000
N#Cc1cnc(Nc2cncc(N3CCCC3c3ccc(C(F)(F)F)cc3)n2)s1 (stereo not drawn) [Example 39, 2-[(6-{2-[4-(Trifluoromethyl)phenyl]pyrrolidin-1-yl}pyrazin-2-yl)amino]-1,3-thiazole-5-carbonitrile]	4.5	12	> 1000
Cc1ccc(C2CCCN2c2nc(Nc3ncc(C#N)s3)c(C)nc2C)cc1 (stereo not drawn) [Example 43, 2-({3,5-Dimethyl-6-[2-(4-methylphenyl)pyrrolidin-1-yl]pyrazin-2-yl}amino)-1,3-thiazole-5-carbonitrile]	2.1	4.2	> 1000
CCc1cnc(Nc2cncc(N3CCCC3c3ccc(C)cc3)n2)s1 (stereo not drawn) [Example 45, N-(5-Ethyl-1,3-thiazol-2-yl)-6-[2-(4-methylphenyl)pyrrolidin-1-yl]pyrazine-2-amine]	7.6	7.3	210
N#Cc1cnc(Nc2cncc(N3CCCC3c3ccc(Cl)cc3)n2)s1 (stereo not drawn) [Example 48, 2-({6-[2-(4-Chlorophenyl)pyrrolidin-1-yl]pyrazin-2-yl}amino)-1,3-thiazole-5-carbonitrile]	1.9	0.6	31
COc1c(Nc2ncc(C#N)s2)nc(N2CCCC2c2ccc(C)cc2)nc1-c1ccc(F)nc1 (stereo not drawn) [Example 50, 2-({6-(6-Fluoropyridin-3-yl)-5-methoxy-2-[2-(4-methylphenyl)pyrrolidin-1-yl]pyrimidin-4-yl}amino)-1,3-thiazole-5-carbonitrile]	9.4	12	≥ 1000
CCOC(=O)c1cnc(Nc2cncc(N3CCCC3c3ccc(C)cc3)n2)s1 (stereo not drawn) [Example 51, Ethyl 2-({6-[2-(4-methylphenyl)pyrrolidin-1-yl]pyrazin-2-yl}amino)-1,3-thiazole-5-carboxylate]	160	88	930
Cc1ccc([C@@H]2CCCN2c2nc(Nc3ncc(C#N)s3)c(C)c(C(=O)NC3CCN(C)CC3)n2)cc1 [Example 54, 6-[(5-Cyano-1,3-thiazol-2-yl)amino]-5-methyl-2-[(2S)-2-(4-methylphenyl)pyrrolidin-1-yl]-N-(l-methylpiperidin-4-yl)pyrimidine-4-carboxamide]	0.4	3.9	190
CNC(=O)c1cc(N2CCC[C@H]2c2ccc(C)cc2)nc(Nc2ncc(C#N)s2)c1C [Example 55, 2-[(5-Cyano-1,3-thiazol-2-yl)amino]-N,3-dimethyl-6-[(2S)-2-(4-methylphenyl)pyrrolidin-1-yl]pyridine-4-carboxamide]	0.3	0.6	24
